Results reported in patent US11458138B2 (Novartis AG, priority 2017, dated 2022).

How the values were obtained:
LATS1 = LATS1 (Homo sapiens (Human), UniProt O95835); assay: LATS1 biochemical assay (Table 1A, Compound Examples 1-290; method in the earlier part)
[1] = tested on: YAP nuclear translocation in HaCaT cells; assay: YAP Translocation Assay (HaCaT Cells); format: cell-based, human; conditions: 24 hours
How it was run: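 HaCaT cells (20,000/well) in DMEM + 10% FBS were plated overnight at 37° C, then exposed to compound for 24 h at 37° C. Cells were fixed with PFA, permeabilized with 0.1% Triton/1.5% BSA and imaged by high-content imaging.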

[2] = tested on: Phospho-YAP (SER127) in HaCaT cells; assay: pYAP HTRF Assay (HaCaT Cells); format: cell-based, human; conditions: 2 hours
Procedure: The pYAP HTRF assay was performed using the Phospho-YAP (SER127) 10000 test kit (CisBio, catalogue number 64YAPPEH) according to manufacturer's instructions. Briefly, HaCaT cells were suspended at 1.1×10^6 cells/mL in DMEM (no phenol red)+10% FBS with penicillin-streptomycin-glutamine. 5 μL of cells were dispensed into 1536 well white solid bottom, tissue culture treated plates (5500 cells/well), and incubated for 48 hours at 37° C. 50 nL test compound was transferred into the assay plates containing HaCaT cells using Pintool (GNF) and incubated for 2 hours. […] The plates were incubated overnight (20 hrs) at room temperature covered with metal lids. Plates were read on Pherastar (BMG Labtech) for HTRF (665 nm/620 nm).

LATS1, sequence (O95835 whole entry, looked up): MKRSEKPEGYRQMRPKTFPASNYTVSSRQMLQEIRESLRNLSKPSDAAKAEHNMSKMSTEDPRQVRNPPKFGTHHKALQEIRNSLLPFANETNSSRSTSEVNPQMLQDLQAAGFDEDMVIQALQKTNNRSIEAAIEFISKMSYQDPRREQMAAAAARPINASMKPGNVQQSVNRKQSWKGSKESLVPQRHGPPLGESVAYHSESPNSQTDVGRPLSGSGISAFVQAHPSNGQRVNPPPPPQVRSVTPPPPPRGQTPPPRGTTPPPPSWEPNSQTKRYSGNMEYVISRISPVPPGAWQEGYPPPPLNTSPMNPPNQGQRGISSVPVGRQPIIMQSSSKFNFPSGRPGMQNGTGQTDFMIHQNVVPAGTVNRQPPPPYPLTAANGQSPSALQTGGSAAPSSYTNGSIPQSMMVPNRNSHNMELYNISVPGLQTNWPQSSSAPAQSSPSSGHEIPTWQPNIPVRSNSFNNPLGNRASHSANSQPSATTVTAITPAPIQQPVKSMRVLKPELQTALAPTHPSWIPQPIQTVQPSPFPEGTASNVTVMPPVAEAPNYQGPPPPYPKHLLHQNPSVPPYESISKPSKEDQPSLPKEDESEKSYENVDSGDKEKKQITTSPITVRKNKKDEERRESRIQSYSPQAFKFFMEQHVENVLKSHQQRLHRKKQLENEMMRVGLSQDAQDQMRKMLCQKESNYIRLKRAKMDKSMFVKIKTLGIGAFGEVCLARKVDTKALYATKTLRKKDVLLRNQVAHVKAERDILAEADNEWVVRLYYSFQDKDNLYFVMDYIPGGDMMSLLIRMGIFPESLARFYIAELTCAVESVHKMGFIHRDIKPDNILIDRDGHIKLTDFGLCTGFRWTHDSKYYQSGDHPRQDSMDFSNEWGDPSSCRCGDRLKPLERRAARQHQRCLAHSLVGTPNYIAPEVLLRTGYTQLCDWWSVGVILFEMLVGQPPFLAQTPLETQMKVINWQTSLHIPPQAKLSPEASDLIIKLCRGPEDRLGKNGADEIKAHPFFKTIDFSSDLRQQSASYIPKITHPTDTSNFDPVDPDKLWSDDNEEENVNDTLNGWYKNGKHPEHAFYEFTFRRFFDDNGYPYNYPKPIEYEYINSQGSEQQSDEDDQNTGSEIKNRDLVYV
LATS1, sequence (Q7L9L4 whole entry partner, looked up): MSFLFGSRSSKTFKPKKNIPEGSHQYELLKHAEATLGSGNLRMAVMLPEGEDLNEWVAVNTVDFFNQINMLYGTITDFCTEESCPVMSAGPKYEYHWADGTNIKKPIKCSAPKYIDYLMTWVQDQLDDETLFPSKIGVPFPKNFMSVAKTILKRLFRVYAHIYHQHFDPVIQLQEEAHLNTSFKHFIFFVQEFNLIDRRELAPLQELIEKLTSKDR

Question: Which results are given for CC(C)(CCS(C)(=O)=O)Nc1nc(-c2ccncc2)nc2cnccc12 [Example 22, N-(4-methanesulfonyl-2-methylbutan-2-yl)-2-(pyridin-4-yl)pyrido[3,4-d]pyrimidin-4-amine]?
Answer: IC50 (LATS1): 0.007 µM; EC50 ([1]; Homo sapiens): 13 µM; IC50 ([2]; Homo sapiens): 11.4 µM

Question: Which results are given for CC1(Nc2nc(-c3c(F)cncc3F)nc3cnccc23)CC1 [Example 147, 2-(3,5-difluoropyridin-4-yl)-N-(1-methylcyclopropyl)pyrido[3,4-d]pyrimidin-4-amine]?
Answer: IC50 (LATS1): 0.069 µM; EC50 ([1]; Homo sapiens): > 20 µM; IC50 ([2]; Homo sapiens): > 10 µM

Question: With CC1(Nc2nc(-c3cn[nH]c3)nc3cnccc23)CC1 [Example 194, N-(1-methylcyclopropyl)-2-(1H-pyrazol-4-yl)pyrido[3,4-d]pyrimidin-4-amine] as the molecule, how does the IC50 (LATS1) read?
Answer: 0.005 µM

Question: And the EC50 ([1]; Homo sapiens)?
Answer: 4.24 µM

Question: And the IC50 ([2]; Homo sapiens)?
Answer: 11.3 µM

Question: How did the IC50 (LATS1) turn out when CC1(Nc2nc(-c3cncs3)nc3cnccc23)CC1 [Example 149, N-(1-methylcyclopropyl)-2-(1,3-thiazol-5-yl)pyrido[3,4-d]pyrimidin-4-amine] was run?
Answer: 0.171 µM

Question: What about the EC50 ([1]; Homo sapiens) of the same molecule?
Answer: > 20 µM

Question: And the IC50 ([2]; Homo sapiens)?
Answer: > 10 µM

Question: For CCOC(=O)C1(Nc2nc(-c3ccncc3)nc3cnccc23)CCC1 [Example 55, ethyl 1-{[2-(pyridin-4-yl)pyrido[3,4-d]pyrimidin-4-yl]amino}cyclobutane-1-carboxylate], which IC50 (LATS1) is on record?
Answer: 0.46 µM

Question: And the EC50 ([1]; Homo sapiens)?
Answer: > 20 µM

Question: And the IC50 ([2]; Homo sapiens)?
Answer: > 10 µM

Question: Which IC50 (LATS1) does the source give for CC(C)(CN1CCOCC1)Nc1nc(-c2ccncc2)nc2cnccc12 [Example 74] here?
Answer: 0.006 µM

Question: What about the EC50 ([1]; Homo sapiens) of the same molecule?
Answer: 12.7 µM

Question: And the IC50 ([2]; Homo sapiens)?
Answer: 3.4 µM

Question: CC1CCCCN1CC(C)(C)Nc1nc(-c2ccncc2)nc2cnccc12 (stereo not drawn) [Example 108, N-[2-methyl-1-(2-methylpiperidin-1-yl)propan-2-yl]-2-(pyridin-4-yl)pyrido[3,4-d]pyrimidin-4-amine] was tested. Which IC50 (LATS1) did it give?
Answer: 0.027 µM

Question: And the EC50 ([1]; Homo sapiens)?
Answer: > 19.3 µM

Question: And the IC50 ([2]; Homo sapiens)?
Answer: 11.8 µM

Question: For C[C@@H]1CCC[C@@H]1Nc1nc(-c2ccncc2)nc2cnccc12 (single isomer, unassigned) [Example 17b], which IC50 (LATS1) is on record?
Answer: 0.0009 µM

Question: What about the EC50 ([1]; Homo sapiens) of the same molecule?
Answer: 1.22 µM

Question: What about the IC50 ([2]; Homo sapiens) of the same molecule?
Answer: 0.765 µM

Question: CC1(Nc2nc(-c3ccncc3)nc3cncc(Cl)c23)CC1 [Example 252, 5-chloro-N-(1-methylcyclopropyl)-2-(pyridin-4-yl)pyrido[3,4-d]pyrimidin-4-amine] was tested. Which IC50 (LATS1) did it give?
Answer: 0.002 µM

Question: And the EC50 ([1]; Homo sapiens)?
Answer: > 10 µM

Question: And the IC50 ([2]; Homo sapiens)?
Answer: 6.98 µM

Question: How did the IC50 (LATS1) turn out when C[C@@H](N(C)c1nc(-c2ccncc2F)nc2cnccc12)C(F)(F)F [Example 137, 2-(3-fluoropyridin-4-yl)-N-methyl-N-[(2R)-1,1,1-trifluoropropan-2-yl]pyrido[3,4-d]pyrimidin-4-amine] was run?
Answer: 0.022 µM

Question: What about the EC50 ([1]; Homo sapiens) of the same molecule?
Answer: > 17.8 µM

Question: And the IC50 ([2]; Homo sapiens)?
Answer: 35.5 µM

Question: With OCC1(Nc2nc(-c3ccncc3)nc3cnccc23)CCCC1 [Example 51, (1-{[2-(pyridin-4-yl)pyrido[3,4-d]pyrimidin-4-yl]amino}cyclopentyl)methanol] as the molecule, how does the IC50 (LATS1) read?
Answer: 0.006 µM

Question: What about the EC50 ([1]; Homo sapiens) of the same molecule?
Answer: 4.39 µM

Question: What about the IC50 ([2]; Homo sapiens) of the same molecule?
Answer: 57.8 µM

Question: CN(C)c1nc(-c2ccncc2)nc2cnccc12 [Example 88, N,N-dimethyl-2-(pyridin-4-yl)pyrido[3,4-d]pyrimidin-4-amine] was tested. Which IC50 (LATS1) did it give?
Answer: 0.037 µM

Question: And the EC50 ([1]; Homo sapiens)?
Answer: 29.3 µM

Question: And the IC50 ([2]; Homo sapiens)?
Answer: 69.8 µM

Question: Which IC50 (LATS1) does the source give for O=C(O)C1(Nc2nc(-c3ccncc3)nc3cnccc23)CCC1 [Example 56, 1-{[2-(pyridin-4-yl)pyrido[3,4-d]pyrimidin-4-yl]amino}cyclobutane-1-carboxylic acid] here?
Answer: 1.16 µM

Question: What about the EC50 ([1]; Homo sapiens) of the same molecule?
Answer: > 20 µM

Question: And the IC50 ([2]; Homo sapiens)?
Answer: > 10 µM

Question: CC(C)(Nc1nc(-c2ccncc2)nc2cnccc12)c1ccc(F)cc1 [Example 83, N-[2-(4-fluorophenyl)propan-2-yl]-2-(pyridin-4-yl)pyrido[3,4-d]pyrimidin-4-amine] was tested. Which IC50 (LATS1) did it give?
Answer: 0.017 µM

Question: And the EC50 ([1]; Homo sapiens)?
Answer: 28.2 µM

Question: What about the IC50 ([2]; Homo sapiens) of the same molecule?
Answer: 42.1 µM

Question: How did the IC50 (LATS1) turn out when CCCCN(C)c1nc(-c2ccncc2)nc2cnccc12 [Example 9, N-butyl-N-methyl-2-(pyridin-4-yl)pyrido[3,4-d]pyrimidin-4-amine] was run?
Answer: 0.003 µM

Question: What about the EC50 ([1]; Homo sapiens) of the same molecule?
Answer: 2.42 µM

Question: What about the IC50 ([2]; Homo sapiens) of the same molecule?
Answer: 2.1 µM

Question: CCC(CC)Nc1nc(-c2ccncc2)nc2cnccc12 [Example 73, N-(pentan-3-yl)-2-(pyridin-4-yl)pyrido[3,4-d]pyrimidin-4-amine] was tested. Which IC50 (LATS1) did it give?
Answer: 0.006 µM

Question: What about the EC50 ([1]; Homo sapiens) of the same molecule?
Answer: 8.26 µM

Question: And the IC50 ([2]; Homo sapiens)?
Answer: 9.07 µM

Question: With CC(C)(CCc1ccccc1)Nc1nc(-c2ccncc2)nc2cnccc12 [Example 20, N-(2-methyl-4-phenylbutan-2-yl)-2-(pyridin-4-yl)pyrido[3,4-d]pyrimidin-4-amine] as the molecule, how does the IC50 (LATS1) read?
Answer: 0.006 µM

Question: What about the EC50 ([1]; Homo sapiens) of the same molecule?
Answer: 5.18 µM

Question: And the IC50 ([2]; Homo sapiens)?
Answer: 1.77 µM

Question: For CCN(c1nc(-c2ccncc2C)nc2cnccc12)C(C)C [Example 123, N-ethyl-2-(3-methylpyridin-4-yl)-N-(propan-2-yl)pyrido[3,4-d]pyrimidin-4-amine], which IC50 (LATS1) is on record?
Answer: 0.018 µM

Question: And the EC50 ([1]; Homo sapiens)?
Answer: 9.2 µM

Question: What about the IC50 ([2]; Homo sapiens) of the same molecule?
Answer: 9.45 µM

Question: How did the IC50 (LATS1) turn out when CC(C)(C#N)Nc1nc(-c2ccncc2)nc2cnccc12 [Example 107, 2-methyl-2-{[2-(pyridin-4-yl)pyrido[3,4-d]pyrimidin-4-yl]amino}propanenitrile] was run?
Answer: 0.008 µM

Question: And the EC50 ([1]; Homo sapiens)?
Answer: 20 µM

Question: What about the IC50 ([2]; Homo sapiens) of the same molecule?
Answer: 31.2 µM

Question: With CC(C)(CNC(=O)OC(C)(C)C)Nc1nc(-c2ccncc2)nc2cnccc12 [Example 100, Tert-butyl N-(2-methyl-2-{[2-(pyridin-4-yl)pyrido[3,4-d]pyrimidin-4-yl]amino}propyl)carbamate] as the molecule, how does the IC50 (LATS1) read?
Answer: 0.004 µM

Question: And the EC50 ([1]; Homo sapiens)?
Answer: 4.83 µM

Question: And the IC50 ([2]; Homo sapiens)?
Answer: 11.6 µM

Question: Fc1cccc(Nc2nc(-c3ccncc3)nc3cnccc23)c1 [Example 95, N-(3-fluorophenyl)-2-(pyridin-4-yl)pyrido[3,4-d]pyrimidin-4-amine] was tested. Which IC50 (LATS1) did it give?
Answer: > 1.44 µM

Question: What about the EC50 ([1]; Homo sapiens) of the same molecule?
Answer: > 20 µM

Question: And the IC50 ([2]; Homo sapiens)?
Answer: > 10 µM

Question: How did the IC50 (LATS1) turn out when CCCCNc1nc(-c2ccncc2)nc2cnccc12 [Example 19, N-butyl-2-(pyridin-4-yl)pyrido[3,4-d]pyrimidin-4-amine] was run?
Answer: 0.006 µM

Question: What about the EC50 ([1]; Homo sapiens) of the same molecule?
Answer: 17.6 µM

Question: And the IC50 ([2]; Homo sapiens)?
Answer: 24.8 µM

Question: How did the IC50 (LATS1) turn out when CCCNc1nc(-c2c(C)[nH]c3ncccc23)nc2cnccc12 [Example 142, 2-{2-methyl-1H-pyrrolo[2,3-b]pyridin-3-yl}-N-propylpyrido[3,4-d]pyrimidin-4-amine] was run?
Answer: 0.006 µM

Question: What about the EC50 ([1]; Homo sapiens) of the same molecule?
Answer: > 28 µM

Question: What about the IC50 ([2]; Homo sapiens) of the same molecule?
Answer: > 100 µM

Question: What does the source list for Cc1[nH]c2ncccc2c1-c1nc(NC(C)(C)C)c2ccncc2n1 [Example 114, N-tert-butyl-2-{2-methyl-1H-pyrrolo[2,3-b]pyridin-3-yl}pyrido[3,4-d]pyrimidin-4-amine]?
Answer: IC50 (LATS1): 0.002 µM; EC50 ([1]; Homo sapiens): 1.33 µM; IC50 ([2]; Homo sapiens): 0.565 µM

Question: With CCNc1nc(-c2ccncc2)nc2cnccc12 [Example 13, N-ethyl-2-(pyridin-4-yl)pyrido[3,4-d]pyrimidin-4-amine] as the molecule, how does the IC50 (LATS1) read?
Answer: 0.004 µM

Question: What about the EC50 ([1]; Homo sapiens) of the same molecule?
Answer: 8.51 µM

Question: What about the IC50 ([2]; Homo sapiens) of the same molecule?
Answer: 13.5 µM

Question: How did the IC50 (LATS1) turn out when CC(C)CNc1nc(-c2ccncc2)nc2cnccc12 [Example 103, N-(2-methylpropyl)-2-(pyridin-4-yl)pyrido[3,4-d]pyrimidin-4-amine] was run?
Answer: 0.002 µM

Question: What about the EC50 ([1]; Homo sapiens) of the same molecule?
Answer: 2.27 µM

Question: What about the IC50 ([2]; Homo sapiens) of the same molecule?
Answer: 2.64 µM

Question: What does the source list for CC1(Nc2nc(-n3ccc4ncccc43)nc3cnccc23)CC1 [Example 179, N-(1-methylcyclopropyl)-2-{1H-pyrrolo[3,2-b]pyridin-1-yl}pyrido[3,4-d]pyrimidin-4-amine]?
Answer: IC50 (LATS1): 0.002 µM; EC50 ([1]; Homo sapiens): > 20 µM; IC50 ([2]; Homo sapiens): > 10 µM

Question: With CC1CCCC1Nc1nc(-c2ccncc2)nc2cnccc12 (single isomer, unassigned) [Example 17c] as the molecule, how does the IC50 (LATS1) read?
Answer: 0.003 µM

Question: And the EC50 [1]?
Answer: 4.68 µM

Question: What about the IC50 [2] of the same molecule?
Answer: 4.28 µM
